Holding throughout (assay type): functional
For assay [1], the system named is Staphylococcus aureus. The assay is described as follows: Antibacterial activity against methicillin-resistant Staphylococcus aureus N315 assessed as inhibition of bacterial growth measured after 24 hrs by CLSI based broth microdilution method. (Dilution methods test growth across graded concentrations, often in twofold steps.)
Assay [2] relates to Escherichia coli. The experiment in a line: Antibacterial activity against Escherichia coli ATCC 25922 assessed as inhibition of bacterial growth measured after 24 hrs by CLSI based broth microdilution method.
The next assay relates to Enterococcus faecalis. The experiment in a line: Antibacterial activity against Enterococcus faecalis assessed as inhibition of bacterial growth measured after 24 hrs by CLSI based broth microdilution method.
Assay [3] relates to Escherichia coli. The experiment in a line: Antibacterial activity against Escherichia coli assessed as inhibition of bacterial growth measured after 24 hrs by CLSI based broth microdilution method.
Another assay relates to Acinetobacter baumannii. The experiment in a line: Antibacterial activity against Acinetobacter baumannii assessed as inhibition of bacterial growth measured after 24 hrs by CLSI based broth microdilution method.
Assay [4] has as its system Pseudomonas aeruginosa. The experiment in a line: Antibacterial activity against Pseudomonas aeruginosa ATCC 27853 assessed as inhibition of bacterial growth measured after 24 hrs by CLSI based broth microdilution method.
A further assay relates to Klebsiella pneumoniae. The experiment in a line: Antibacterial activity against Klebsiella pneumoniae assessed as inhibition of bacterial growth measured after 24 hrs by CLSI based broth microdilution method.
In assay [5] the test system is Pseudomonas aeruginosa. The experiment in a line: Antibacterial activity against Pseudomonas aeruginosa assessed as inhibition of bacterial growth measured after 24 hrs by CLSI based broth microdilution method.
Assay [6] relates to Staphylococcus aureus. The assay is described as follows: Antibacterial activity against Staphylococcus aureus assessed as inhibition of bacterial growth measured after 24 hrs by CLSI based broth microdilution method.
In assay [7] the test system is Staphylococcus aureus. The experiment in a line: Antibacterial activity against Staphylococcus aureus ATCC 25923 assessed as inhibition of bacterial growth measured after 24 hrs by CLSI based broth microdilution method.

The structures appear in SMILES notation. ≈ marks a conversion by molar mass, not a printed value.

Regarding `Cc1noc(NS(=O)(=O)c2ccc(NC(c3cc(O)c4c(c3)C(=O)c3cccc(O)c3C4=O)P(=O)(Oc3ccccc3)Oc3ccccc3)cc2)c1C` (stereo not given), the MIC (commonly the lowest concentration found to suppress growth) amounted to 32 µg/mL (≈ 42.6 µM) in the assay with Staphylococcus aureus [1]; 64 µg/mL (≈ 85.1 µM) in the assay on Escherichia coli [2]; 64 µg/mL (≈ 85.1 µM) in the assay on Enterococcus faecalis; 64 µg/mL (≈ 85.1 µM) with Escherichia coli [3]; 128 µg/mL (≈ 170 µM) in the assay on Acinetobacter baumannii; 64 µg/mL (≈ 85.1 µM) in the assay with Pseudomonas aeruginosa [4]. For the same compound, the MIC with Klebsiella pneumoniae was 128 µg/mL (≈ 170 µM); with Pseudomonas aeruginosa [5] it was 32 µg/mL (≈ 42.6 µM); in the assay on Staphylococcus aureus [6] it was 16 µg/mL (≈ 21.3 µM); with Staphylococcus aureus [7], 16 µg/mL (≈ 21.3 µM).

Take `CCn1cc(C(=O)O)c(=O)c2cc(F)c(N3CCNCC3)cc21` [NORFLOXACIN]: the MIC in the assay with Staphylococcus aureus [1] was 8 µg/mL (≈ 25.1 µM); in the assay with Escherichia coli [2] it was 4 µg/mL (≈ 12.5 µM); with Enterococcus faecalis, 4 µg/mL (≈ 12.5 µM); with Escherichia coli [3], 8 µg/mL (≈ 25.1 µM); in the assay on Acinetobacter baumannii, 8 µg/mL (≈ 25.1 µM); in the assay with Pseudomonas aeruginosa [4], 2 µg/mL (≈ 6.26 µM). Moreover, the MIC was 4 µg/mL (≈ 12.5 µM) in the assay with Klebsiella pneumoniae, 2 µg/mL (≈ 6.26 µM) with Pseudomonas aeruginosa [5], 8 µg/mL (≈ 25.1 µM) in the assay on Staphylococcus aureus [6] and 4 µg/mL (≈ 12.5 µM) in the assay on Staphylococcus aureus [7].

As to `NS(=O)(=O)c1ccc(NC(c2cc(O)c3c(c2)C(=O)c2cccc(O)c2C3=O)P(=O)(Oc2ccccc2)Oc2ccccc2)cc1` (stereo not given), the MIC in the assay with Staphylococcus aureus [1] is 16 µg/mL (≈ 24.4 µM); in the assay with Escherichia coli [2], 32 µg/mL (≈ 48.7 µM); in the assay on Enterococcus faecalis, 32 µg/mL (≈ 48.7 µM); in the assay on Escherichia coli [3] it was 64 µg/mL (≈ 97.5 µM); in the assay with Acinetobacter baumannii, 16 µg/mL (≈ 24.4 µM); in the assay on Pseudomonas aeruginosa [4] it was 32 µg/mL (≈ 48.7 µM). Further, the minimum inhibitory concentration (MIC) in the assay with Klebsiella pneumoniae was 128 µg/mL (≈ 195 µM); in the assay with Pseudomonas aeruginosa [5] it was 128 µg/mL (≈ 195 µM); in the assay with Staphylococcus aureus [6], 64 µg/mL (≈ 97.5 µM); in the assay with Staphylococcus aureus [7], 256 µg/mL (≈ 390 µM).

With `Cc1cc(NS(=O)(=O)c2ccc(NC(c3cc(O)c4c(c3)C(=O)c3cccc(O)c3C4=O)P(=O)(OC(C)C)OC(C)C)cc2)no1` (stereo not given), the MIC in the assay with Staphylococcus aureus [1] was 128 µg/mL (≈ 191 µM); in the assay with Escherichia coli [2] it was 64 µg/mL (≈ 95.6 µM); in the assay with Enterococcus faecalis, 32 µg/mL (≈ 47.8 µM); in the assay with Escherichia coli [3] it was 64 µg/mL (≈ 95.6 µM); with Acinetobacter baumannii, 0.5 µg/mL (≈ 0.747 µM); in the assay on Pseudomonas aeruginosa [4] it was 8 µg/mL (≈ 11.9 µM). The MIC in the assay with Klebsiella pneumoniae stood at 256 µg/mL (≈ 382 µM); with Pseudomonas aeruginosa [5], 32 µg/mL (≈ 47.8 µM); in the assay on Staphylococcus aureus [6], 128 µg/mL (≈ 191 µM); with Staphylococcus aureus [7], 256 µg/mL (≈ 382 µM).

As to `O=C1c2cccc(O)c2C(=O)c2c(O)cc(C(Nc3ccc(S(=O)(=O)Nc4ncccn4)cc3)P(=O)(Oc3ccccc3)Oc3ccccc3)cc21` (stereo not given), the MIC in the assay with Staphylococcus aureus [1] was 64 µg/mL (≈ 87.1 µM); in the assay with Escherichia coli [2], 32 µg/mL (≈ 43.6 µM); with Enterococcus faecalis it was 64 µg/mL (≈ 87.1 µM); in the assay with Escherichia coli [3], 64 µg/mL (≈ 87.1 µM); in the assay on Acinetobacter baumannii it was 64 µg/mL (≈ 87.1 µM); in the assay on Pseudomonas aeruginosa [4], 64 µg/mL (≈ 87.1 µM). Further, the MIC with Klebsiella pneumoniae came to 128 µg/mL (≈ 174 µM); in the assay on Pseudomonas aeruginosa [5] it was 128 µg/mL (≈ 174 µM); with Staphylococcus aureus [6], 32 µg/mL (≈ 43.6 µM); in the assay with Staphylococcus aureus [7] it was 256 µg/mL (≈ 348 µM).

Regarding `Cc1cc(NS(=O)(=O)c2ccc(N)cc2)no1` [SULFAMETHOXAZOLE], the MIC with Staphylococcus aureus [1] worked out at 4 µg/mL (≈ 15.8 µM); in the assay with Escherichia coli [2], 4 µg/mL (≈ 15.8 µM); with Enterococcus faecalis, 16 µg/mL (≈ 63.2 µM); in the assay on Escherichia coli [3], 64 µg/mL (≈ 253 µM); with Acinetobacter baumannii, 4 µg/mL (≈ 15.8 µM); in the assay on Pseudomonas aeruginosa [4], 2 µg/mL (≈ 7.9 µM). Moreover, the MIC with Klebsiella pneumoniae came out at 8 µg/mL (≈ 31.6 µM); in the assay on Pseudomonas aeruginosa [5], 4 µg/mL (≈ 15.8 µM); in the assay with Staphylococcus aureus [6], 8 µg/mL (≈ 31.6 µM); in the assay with Staphylococcus aureus [7], 32 µg/mL (≈ 126 µM).

Take `CCOP(=O)(OCC)C(Nc1ccc(S(=O)(=O)Nc2nccs2)cc1)c1cc(O)c2c(c1)C(=O)c1cccc(O)c1C2=O` (stereo not given): the MIC with Staphylococcus aureus [1] worked out at 256 µg/mL (≈ 398 µM); with Escherichia coli [2], 256 µg/mL (≈ 398 µM); in the assay on Enterococcus faecalis it was 0.5 µg/mL (≈ 0.777 µM); in the assay with Escherichia coli [3], 256 µg/mL (≈ 398 µM); with Acinetobacter baumannii it was 64 µg/mL (≈ 99.4 µM); in the assay with Pseudomonas aeruginosa [4], 128 µg/mL (≈ 199 µM). Also, the MIC came to 256 µg/mL (≈ 398 µM) in the assay on Klebsiella pneumoniae, 256 µg/mL (≈ 398 µM) in the assay on Pseudomonas aeruginosa [5], 16 µg/mL (≈ 24.9 µM) in the assay on Staphylococcus aureus [6] and 256 µg/mL (≈ 398 µM) with Staphylococcus aureus [7].

As for `COP(=O)(OC)C(Nc1ccc(S(=O)(=O)Nc2cc(C)on2)cc1)c1cc(O)c2c(c1)C(=O)c1cccc(O)c1C2=O` (stereo not given), the MIC in the assay on Staphylococcus aureus [1] was determined as 128 µg/mL (≈ 209 µM); in the assay with Escherichia coli [2], 64 µg/mL (≈ 104 µM); in the assay with Enterococcus faecalis it was 64 µg/mL (≈ 104 µM); in the assay with Escherichia coli [3], 16 µg/mL (≈ 26.1 µM); with Acinetobacter baumannii, 128 µg/mL (≈ 209 µM); in the assay with Pseudomonas aeruginosa [4], 64 µg/mL (≈ 104 µM). The MIC with Klebsiella pneumoniae amounted to 32 µg/mL (≈ 52.2 µM); in the assay with Pseudomonas aeruginosa [5], 16 µg/mL (≈ 26.1 µM); in the assay on Staphylococcus aureus [6], 8 µg/mL (≈ 13 µM); with Staphylococcus aureus [7], 0.5 µg/mL (≈ 0.815 µM).

The record behind these values is ChEMBL document CHEMBL5143638, “Natural aloe emodin-hybridized sulfonamide aminophosphates as novel potential membrane-perturbing and DNA-intercalating agents against Enterococcus faecalis” (Bioorg Med Chem Lett, 2022).
